Counter-ions that a name gives are not always drawn. Like-named read-outs stand apart in the source and are kept apart here. Non-standard residues stand in square brackets, D forms with d. Residues, ends and D or L forms follow the SMILES beside them. Tyr(3-NO2) = N[C@@H](Cc1ccc(O)c([N+](=O)[O-])c1)C(=O)O; 2Abz = Nc1ccccc1C(=O)O
What was measured:
HCMV No protease [1] = target: T1, HCMV No protease (Human cytomegalovirus, UniProt P16753); assay: HCMV No Protease Assay (fluorogenic substrate, IC50); type: biochemical; conditions: fluorogenic substrate cleaved by HCMV No protease
[2] = tested on: HCMV (strain AD169, ATCC VR-538); assay: Plaque Reduction Assay (PRA), HCMV-infected Hs-68 cells; type: cell-based, human cytomegalovirus (HCMV)
Procedure: B. Plaque Reduction Assay (PRA): Hs-68 cells (ATCC # CRL 1635) were seeded in 12-well plates at 83,000 cells/well in 1 mL of DMEM medium (Gibco Canada Inc.) supplemented with 10% fetal bovine serum (FBS, Gibco Canada Inc.). The plates were incubated for 3 days at 37° to allow the cells to reach 80-90% confluency prior to the assay.
The medium was removed from the cells by aspiration. The cells were then infected with approximately 50 PFU of HCMV (strain AD169, ATCC VR-538) in DMEM medium supplemented with 5% inactivated FBS (assay medium). (DMEM medium is commercially available and has been described by R. Dulbecco et al., Virology 1959, 8, 396.) The virus was allowed to adsorb to cells for 2 h at 37°. Following viral adsorption, the medium was removed from the wells by aspiration. The cells were then incubated with or without 1 mL of appropriate concentrations of test reagent in assay medium. Occasionally, test compounds were added 24 h post-infection. After 4 days of incubation at 37°, the medium was exchanged with fresh medium containing test compound and 4 days later the cells were fixed with 1% aqueous formaldehyde and stained with a 2% violet solution in 20% ethanol in water. Microscopic plaques were counted using a stereomicroscope. Drug effects were calculated as a percent reduction in the number of plaques in the presence of each drug concentration compared to the number observed in the absence of drug. Ganciclovir was used as a positive control in all experiments.

[3] = Cytotoxic effects, tetrazolium salt (MTT) metabolic assay; type: cell-based; conditions: cytotoxicity, Table 1 and Table 2, read-out: TC50 (the source's name)
Procedure: Cytotoxic effects noted as TC50 in the following tables were determined according to the tetrazolium salt (MTT) metabolic assay, F. Denizot and F. Lang, J. Immun. Meth., 1986, 89, 271.

HCMV No protease [4] = target: T1, HCMV No protease; assay: HCMV No Protease Assay (fluorogenic substrate, IC50); type: biochemical; conditions: HCMV No protease 100 nM, substrate 5 μM, 2.5 h at 30°, pH 8; Table 1 and Table 2
Procedure: This particular assay determines the ability of a test compound to inhibit the activity (IC50) of HCMV protease. More specifically, in the assay described herein, the inhibitory activity of the test compound is evaluated on the basis of its ability to interfere with the HCMV No protease cleavage of a fluorogenic peptide substrate which in turn is based on the maturation cleavage site of the enzyme.
1. HCMV No Protease Assay
Material & Methods: Fluorescence measurements were recorded on a Perkin-Elmer LS-50B spectrofluorimeter equipped with a plate reader accessory. UV measurements were recorded on a Thermomax® microplate reader from Molecular Devices Corporation, Menlo Park, Calif., USA.
The fluorescence increase upon cleavage of the Ala-Ser amide bond was monitored using excitation λ=312 nm (slit 2.5 nm) and emission λ=415 nm ([…]). A protocol adaptable to a 96-well plate format was designed for the determination of IC50 values of inhibitors.
No quenching was required before fluorescence measurement since the total scanning time by the plate reader accessory was brief relative to the duration of the reaction. The aqueous incubation buffer contained 50 mM tris(hydroxymethyl)aminomethane-HCl pH 8, 0.5M Na2 SO4, 50 mM NaCl, 0.1 mM EDTA, 1 mM tris(2-carboxyethyl)phosphine.HCl, 3% v/v DMSO and 0.05% w/v casein. The final concentrations of HCMV No protease (expressed in terms of total monomer concentration) and substrate were 100 nM and 5 μM respectively. IC50 values were obtained through fitting of the inhibition curve to a competitive inhibition model using SAS NLIN procedure. The mode of inhibition was determined by measurements of the initial rates (in cuvettes) at various substrate concentrations in the buffer as described above.

[5] = Human betaherpesvirus 5, Hs68, plaque reduction, Hs-68 cells, HCMV strain AD169, Table 1 and Table 2, read-out: EC50

T1 sequence (P16753 1-256): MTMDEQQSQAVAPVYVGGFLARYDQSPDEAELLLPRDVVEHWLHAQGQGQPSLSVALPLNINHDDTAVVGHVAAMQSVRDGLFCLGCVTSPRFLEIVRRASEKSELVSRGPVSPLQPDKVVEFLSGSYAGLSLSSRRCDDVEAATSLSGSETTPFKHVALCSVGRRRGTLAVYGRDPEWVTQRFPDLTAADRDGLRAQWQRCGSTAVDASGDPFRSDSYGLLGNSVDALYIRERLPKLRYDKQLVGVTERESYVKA

SMILES | Kcat /KM (HCMV No protease [1]) | EC50 [2, 5] | CC50 [3] | IC50 (HCMV No protease [4]) | EC50 ([2]; Human betaherpesvirus 5, AD169, Hs68)
CC(C)C[C@H](NC(=O)[C@H](CCCNC(=N)N)NC(=O)[C@H](CO)NC(=O)[C@H](CO)NC(=O)[C@H](C)NC(=O)[C@H](CC(N)=O)NC(=O)[C@@H](NC(=O)[C@@H](NC(=O)c1ccccc1N)C(C)C)C(C)C)C(=O)N[C@@H](Cc1ccc(O)c([N+](=O)[O-])c1)C(=O)N[C@@H](CCCNC(=N)N)C(=O)O (H-[2Abz]VVNASSRL[Tyr(3-NO2)]R-OH) | 260 M⁻¹ s⁻¹ | – | – | – | –
CC(C)C[C@@H](CS[C@H]1CC(=O)N1C(=O)NCc1ccccc1)NC(=O)[C@@H](NC(=O)OC(C)(C)C)C(C)(C)C [Entry 101] | – | > 11 µM | > 11 µM | 0.4 µM | –
C[C@@H](NC(=O)N1C(=O)C[C@@H]1Sc1ccccc1)c1ccccc1 [Entry 102] | – | 40 µM | > 100 µM | – | –
C[C@@H](NC(=O)N1C(=O)C[C@@H]1SCc1ccccc1)c1ccccc1 [Entry 103] | – | > 5 µM | > 5 µM | 12.4 µM | –
C[C@@H](NC(=O)N1C(=O)C[C@@H]1SCCc1ccccc1)c1ccccc1 [Entry 104] | – | > 4 µM | > 4 µM | 6.5 µM | –
C[C@@H](NC(=O)N1C(=O)C[C@@H]1SC[C@H](CCS(C)(=O)=O)NC(=O)[C@@H](NC(=O)OC(C)(C)C)C(C)(C)C)c1ccccc1 [Entry 105] | – | 110 µM | > 250 µM | 0.2 µM | –
C[C@@H](NC(=O)N1C(=O)C[C@H]1SC[C@H](CCS(C)(=O)=O)NC(=O)[C@@H](NC(=O)OC(C)(C)C)C(C)(C)C)c1ccccc1 [Entry 106] | – | 230 µM | > 250 µM | 0.62 µM | –
C[C@@H](NC(=O)N1C(=O)C[C@H]1[S+]([O-])c1ccccc1)c1ccccc1 (stereo partly drawn) [Entry 107] | – | – | – | 9 µM | –
C[C@@H](NC(=O)N1C(=O)C[C@@H]1[S+]([O-])c1ccccc1)c1ccccc1 (stereo partly drawn) [Entry 108] | – | – | – | 4 µM | –
C[C@@H](NC(=O)N1C(=O)C[C@@H]1SCc1ccncc1)c1ccccc1 [Entry 109] | – | 65 µM | > 250 µM | 2.1 µM | –
C[C@@H](NC(=O)N1C(=O)C[C@@H]1SCc1cccnc1)c1ccccc1 [Entry 110] | – | 96 µM | > 200 µM | 2 µM | –
C[C@@H](NC(=O)N1C(=O)C[C@@H]1SCc1ccccn1)c1ccccc1 [Entry 111] | – | 60 µM | 180 µM | 2.5 µM | –
C[C@@H](NC(=O)N1C(=O)C[C@@H]1SCC(=O)c1ccccc1)c1ccccc1 [Entry 112] | – | > 37 µM | > 37 µM | 1 µM | –
CC[C@@H](NC(=O)N1C(=O)C[C@@H]1SCc1ccccn1)c1ccccc1 [Entry 114, 4(S)-{(2-pyridinylmethyl)thio}azetidin-2-one-1-carboxylic acid (1(R)-phenylpropyl)amide hydrochloride] | – | 80 µM | > 200 µM | 1.2 µM | –
CC[C@@H](NC(=O)N1C(=O)C[C@@H]1SC[C@H](CC(C)C)NC(=O)[C@@H](NC(=O)CC(C)(C)C)C(C)(C)C)c1ccccc1 [Entry 115] | – | > 250 µM | > 250 µM | < 0.06 µM | –
O=C1C[C@H](SCc2ccccn2)N1C(=O)N[C@H](CO)c1ccccc1 [Entry 116] | – | – | – | 3.6 µM | –
CC(C)C[C@@H](CO[C@@H]1CC(=O)N1C(=O)NCc1ccccc1)NC(=O)OC(C)(C)C [Entry 201] | – | – | – | 44 µM | –
CC(C)C[C@@H](CO[C@@H]1CC(=O)N1C(=O)NCc1ccccc1)NC(=O)[C@@H](NC(=O)OC(C)(C)C)C(C)(C)C [Entry 202] | – | – | > 52 µM | 1.3 µM | 64 µM
CC(C)C[C@@H](CO[C@H]1CC(=O)N1C(=O)N[C@H](C)c1ccccc1)NC(=O)[C@@H](NC(=O)OC(C)(C)C)C(C)(C)C [Entry 203] | – | > 49 µM | > 49 µM | 0.32 µM | –
CC(C)C[C@@H](CO[C@@H]1CC(=O)N1C(=O)NCc1ccccc1)NC(=O)[C@@H](NC(=O)CC(C)(C)C)C(C)(C)C [Entry 204] | – | – | – | 0.16 µM | –
CN(C(=O)CC(CO[C@@H]1CC(=O)N1C(=O)NCc1ccccc1)NC(=O)CC(C)(C)C)C(C)(C)C (stereo partly drawn) [Entry 205] | – | > 250 µM | > 250 µM | 5 µM | –
C[C@@H](NC(=O)N1C(=O)C[C@H]1Oc1ccc(Cl)cc1)c1ccccc1 [Entry 206] | – | – | – | 1.6 µM | –
C[C@@H](NC(=O)N1C(=O)C[C@@H]1Oc1ccc(Cl)cc1)c1ccccc1 [Entry 207] | – | 250 µM | > 250 µM | 0.8 µM | –
C[C@@H](NC(=O)N1C(=O)C[C@@H]1OCCNC(=O)c1ccc(NC(=O)CC(C)(C)C)cc1)c1ccccc1 [Entry 208] | – | – | – | 21 µM | –
COC(=O)[C@@H](C)O[C@@H]1CC(=O)N1C(=O)N[C@H](C)c1ccccc1 [Entry 209] | – | – | – | 21.5 µM | –
COC(=O)[C@H](C)O[C@H]1CC(=O)N1C(=O)N[C@H](C)c1ccccc1 [Entry 210] | – | – | – | 3.8 µM | –

Reference: patent US6239125A, “Azetidinone derivatives for the treatment of HCMV infections” (Boehringer Ingelheim (Canada) Ltd., priority 1998, dated 2001)
